Assay results published in EP3336173A1, “A STRAIN OF A[…] APPLICATIONS THEREOF” (Infinitec Activos S.L., priority 2016, dated 2018).

Test system: Prostaglandin E2 (PGE2)
Assay: Anti-inflammatory activity: PGE2 quantification by ELISA in cells stimulated by IL-1α
Type: cell-based
Settings: Cycloheximide 100 µg/ml; IL-1α (5 pM)
Protocol: When cells are stimulated by an inflammatory agent PGE2 is synthesized de novo and released into the extracellular space. Thus quantification of PGE2 is used to asses the anti-inflammatory activity products.
In the present example the anti-inflammatory activity of the extract of example 2 was determined by quantification of PGE2 in cells stimulated by IL-1α using a kit for an enzyme-linked immunosorbent assay (ELISA). The kit used was Prostaglandin E2 EIA kit Item n° 514010 from Cayman Chemical.
Prostaglandin E2 assay is based on competition between the PGE2 to be determined and a fixed amount of added PGE2-acetylcholinesterase (AChE) conjugate (PGE2 tracer) for a limited amount of PGE2 monoclonal antibody. The amount of PGE2 tracer able to bind the PGE2 monoclonal antibody will be inversely proportional to the concentration of PGE2 in the well. Both the antibody-PGE2 complex and then antibody-PGE2 tracer complex bind to polyclonal goat anti-mouse IgG previously bound to the well. Then the plate is washed to remove any unbound reagent and Ellman's reagent is added to determine the amount of AChE bound to the well. […] The intensity of this color, determined by UV-Vis spectrophotometry, is proportional to the amount of PGE2 tracer bound […], which is inversely proportional to the amount of PGE2 present in the free well during incubation.

In the case of C[C@@H]1C[C@@H]([C@H](O)CC2CC(=O)NC(=O)C2)C(=O)[C@@H](C)C1 [Cycloheximide], the “PGE2” value is reported as 31.85 pg/mL and the inhibition at 100 µg/mL is reported as 97.6%.
